The numbers were not newly measured in patent publication US20210379090A1, “REMDESIVIR ORAL DELIVERY SYSTEM” (ABON PHARMACEUTICALS, LLC, priority 2020, published 2021), which cites them from elsewhere.

For data set [1] the following is noted: would likely result in almost complete first-pass clearance after oral delivery.
A further data set has as its system COVID-19. The settings on record: received early within 10 days of symptom onset vs treated late after more than 10 days of symptoms.

As for Remdesivir, the solubility in water result is recorded as “practically insoluble”. In data set [1], the hepatic stability result is given as “poor hepatic stability”. For the same substance, in the data set with COVID-19, the clinical outcome is recorded as “improved outcomes”.
